“Also recorded” adds a separate entry of the source.

Assay [1] deals with small intestine crypts (Paneth, stem, goblet cells). Put plainly: Animal study: histological quantification of Paneth, Olfm4+ stem and PAS+ goblet cells per crypt. The format is in vivo, mouse. Conditions: every other day, day 14. The procedure: Following a similar protocol as previously reported for SINE treatment in the context of cancer (Arango et al., 2017; […] Zheng et al., 2014), KPT-330 was administered at a dose 10 mg/kg via oral gavage every other day over a two-week span in C57BL/6 wild-type mice, and body weight was monitored for any clear toxicity. […] Applicants tracked animal weight every other day, and at day 14 collected the proximal and distal thirds of the small intestine for histological quantification of Paneth, stem, and goblet populations (FIG. 26A). […] Samples were prepared for histology by the ‘swiss-roll’ technique, and following staining, were blinded and randomized before manual counting of well-preserved features. […] Applicants additionally quantified the abundance of Olfm4+ stem cells as well as PAS+ goblet cells within the same animals to ascertain whether the effect of SINE treatment was restricted to the Paneth cell compartment (representative images FIG. 30D,E). […] Animal study. 8-10 weeks old wild type C57BL/6NCrl male mice (#027) were purchased from Charles River. Mice were housed under 12 h light/dark cycle and provided food and water ad libitum. 0.01, 0.05, 0.2 or 10 mg/kg of KPT-330 were injected orally using a disposable gavage needle (Cadence Science, #9921) at 10 μL/g weight. KPT-330 was dissolved in DMSO initially and further diluted in sterile PBS containing Pluronic F-68 Non-ionic Surfactant (Gibco, #24040032) and Polyvinylpyrrolidone (PVP, Alfa Aesar, A14315, average M.W. 58,000); the final concentration of DMSO is 2%, Pluronic is 0.5%, and PVP is 0.5%. KPT-330 was administered every other day for two weeks, 7 injections in total (days 0, 2, 4, 6, 8, 10, 12), and mice were sacrificed at day 14. All animal studies are approved by the Committee on Animal Care (CAC) at Massachusetts Institute of Technology. Histology. The small intestine (SI) was collected from mice and divided into three parts. Only proximal and distal SI were kept in PBS, and medial SI was discarded. Each SI was opened longitudinally and washed in PBS. […] Fixed tissues were embedded in paraffin, and 4 μm sections were mounted on slides. For immunohistochemistry, slides were deparaffinized, antigen retrieved using heat-induced epitope retrieval at 97° C. for 20 min using citrate buffer pH 6, and probed with appropriate antibodies followed by DAB staining. For McManus Periodic Acid Schiff (PAS) reaction, slides were deparaffinized, oxidized in periodic acid, and stained with Schiff reagent (Poly Scientific, s272) followed by counterstaining with Harris Hematoxylin. Slides were scanned by Aperio Slide Scanner (Leica) and cells were counted on Aperio eSlide Manager. Slides were randomized before counting, and all cell types were counted in all well-preserved crypts along the longitudinal crypt-villus axis.

Another assay deals with ENR+CD organoids. Put plainly: Secondary (validation) screen: ATP (CTG) assay, 2.5-D 384-well ENR+CD organoids. The format is cell-based, mouse. Conditions: 6-day ENR+CD, vs ENR+CD+DMSO.
The subject of assay [2] is ENR+CD organoids (ISC to Paneth cell differentiation). Put plainly: Primary screen: CCh-stimulated lysozyme secretion LYZ.S, 2.5-D 384-well ENR+CD organoid differentiation. It is filed as cell-based, mouse. Conditions: primary screen. The source says:
High-throughput screening.

The test system of assay [3] is ENR+CD organoids, stem II/III cells. Put plainly: Single-cell RNA-sequencing (Seq-Well) of organoid differentiation time course. The format is cell-based, mouse. The source says: For time points beyond 2 days, media was refreshed every other day. Following the Seq-Well protocol Applicants followed a standard library preparation, sequencing, and alignment process (see Methods).
Single-cell RNA-sequencing. A single-cell suspension was obtained from organoids cultured under conditions for the differentiation time course as described above. Applicants utilized the Seq-Well platform for massively parallel scRNA-seq to capture transcriptomes of single cells on barcoded mRNA capture beads. […] In brief, 20,000 cells from one organoid condition were loaded onto one array containing 100,000 barcoded mRNA capture beads. The loaded arrays containing cells and beads were then sealed using a polycarbonate membrane with a pore size of 0.01 μm, which allows for exchange of buffers but retains biological molecules confined within each microwell. Subsequent exchange of buffers allows for cell lysis, transcript hybridization, and bead recovery before performing reverse transcription en masse. Following reverse transcription and exonuclease treatment to remove excess primers, PCR amplification was carried out using KAPA HiFi PCR Mastermix with 2,000 beads per 50 μL reaction volume. Libraries were then pooled and purified using Agencourt AMPure XP beads (Beckman Coulter, A63881) by a 0.6×SPRI followed by a 0.8×SPRI and quantified using Qubit hsDNA Assay (Thermo Fisher). Libraries were constructed using the Nextera Tagmentation method on a total of 800 pg of pooled cDNA library per sample. […] Arrays were sequenced with an Illumina NovaSeq System. The read structure was paired end with Read 1 starting from a custom read 1 primer containing 20 bases with a 12 bp cell barcode and 8 bp unique molecular identifier (UMI) and Read 2 being 50 bases containing transcript information.
Single-cell RNA-sequencing computational pipelines and analysis.

Where [4] appears, read: stem II/III, day 0.25-2, FDR<0.05.

As to `O=C(/C=C\n1cnc(-c2cc(C(F)(F)F)cc(C(F)(F)F)c2)n1)NNc1cnccn1` [KPT-330], the “Olfm4+ stem cells, distal small intestine” value in assay [1] (0.01 mg/kg oral) was “significant increase in Olfm4+ stem cells”. The “Paneth cells per crypt, distal small intestine” value in assay [1] (0.01 mg/kg oral) is reported as “significant increases in Paneth abundance”. Further, the “Paneth cells per crypt, proximal small intestine” value in assay [1] (0.01 mg/kg oral) and in assay [1] (0.2 mg/kg oral) was “significant increases in Paneth abundance” throughout. For the same compound, the “PAS+ goblet cell population” value in assay [1] (0.01-0.2 mg/kg oral) is given as “did not overserve any significant changes”. Also, the Dose.FC.CTG in the assay with ENR+CD organoids (0.02 uM) is 0.126 log2 fold change; with ENR+CD organoids (0.04 uM) it was 0.029 log2 fold change; with ENR+CD organoids (0.08 uM), 0.141 log2 fold change; with ENR+CD organoids ([…]) it was 0.120 log2 fold change. Also, the “Dose.FC.LYZ.S (log2 fold change)” value in assay [2] (dose 0.08 uM) is given as 0.259; in assay [2] (dose 0.40 uM) it was −0.282; in assay [2] (dose 2.00 uM), −0.390; in assay [2] (dose 10.00 uM), −0.423. Further, the “day 6 Paneth cell odds ratio (OR), treated vs control” value in assay [3] (160 nM KPT-330 in ENR+CD) was ~2. Also, in assay [3] (160 nM KPT-330 in ENR+CD vs ENR+CD, day 0.25-6), the “organoid cell type composition over differentiation time course” value is “enhances stem conversion to mature cells; also recorded: relative depletion of stem I (and stem II & III) and enteroendocrine cells over time along with the corresponding enrichment of enterocytes and Paneth cells”. For the same compound, in assay [3] (KPT-330 treated vs control cells), the “Atf3 (ATF3) expression” value is “upregulated”. Besides, the “active / quiescent ISC signature in early stem cell populations” value in assay [3] (early stem II/III cells) is “induces a quiescent ISC signature and reduces an active ISC signature; also recorded: transition into quiescence”. Moreover, the “GSEA hallmark programs: mitogen-driven signaling (E2F, MYC targets, G2M checkpoint)” value in assay [3] (setting [4]) is given as “suppresses programs downstream of mitogen-driven signaling”. Moreover, the “GSEA hallmark programs: stress response (NFkB signaling, hypoxia, inflammatory response)” value in assay [3] (setting [4]) is “up-regulating programs broadly resembling a complex stress response”.

Values taken from patent US20220323406A1, “METHODS AND COMPOSITIONS FOR DIFFERENTIATING STEM CELLS” (Massachusetts Institute of Technology, priority 2019, published 2022).
